{"source": "patent US11213509B2", "about": "“Compositions and methods for treating traumatic brain injury” (Ischemix, LLC, priority 2017, dated 2022)", "key": {"rat model of focal TBI [1]": {"tested_on": "rat model of focal TBI", "assay": "Morris water maze, rat model of focal TBI (BCCI)", "type": "in vivo", "settings": "for Improvement in escape latency relative to Day 1 / Morris water maze escape latency: 30 mg/kg; for Morris water maze escape latency: vs saline", "text": "BCCI TBI to the medial frontal cortex (MFC) was induced by a cortical contusion device (Custom Design & Fabrication, Inc [CDF], Richmond, Va.). This device creates a reliable contusion injury to the exposed area of the brain with a brass-tipped impounder. (Hoffman et al., 1994). Rats were anesthetized with isoflurane (5%) (Novaplus™), and 02 (300 cm^3/min), and mounted in a stereotaxic frame. Under aseptic conditions, a sagittal incision was made in the scalp and the fascia retracted to expose the cranium. Then, a 6-mm diameter trephine drill was used to open the skull immediately anterior to the bregma. TBI of the MFC was made with a 5-mm-diameter rounded brass impactor attached to a computer-controlled piston propelled electronically with following parameters: velocity=2.5 m/s; depth=3 mm; duration=100 ms). After BCCI, any cortical surface hemorrhaging was controlled and the fascia and scalp sutured. The animals were allowed to recover in a warmed recovery chamber and appropriate post-operative care was taken. Treatment was delivered 30 minutes after injury and at approximately 24 hrs after injury. Two weeks after injury, rats were tested in the Morris water maze (MWM). The MWM is a well-characterized test of spatial learning and memory in rodents. The objective of the MWM is to teach rats that there is an escape platform located somewhere in a large, water filled pool. The rats are naturally motivated to escape the pool. The rats use extra-maze visual cues to locate the position of a submerged platform over a series of trials. The MWM test was conducted beginning at day 14 after traumatic brain injury. Rats were acclimated to the test room at least 1 hour prior to testing. The MWM consists of a circular pool (160 cm diameter×50 cm height) containing water that was made opaque with non-toxic black paint in order to hide the escape platform (see FIG. 4A). The water temperature was kept at 25±1° C. The water surface was 15 cm from the rim of the pool, and the inner wall was always carefully wiped to eliminate any local cues. The pool was located in a large room with a number of extra-maze visual cues, including highly visible geometric images (squares, triangles, circles, etc.) hung on the wall, diffuse lighting, and curtains to hide the experimenter and the awaiting rats. Behavior was tracked by a video camera hanging above the pool. Video tracking software (ANY-maze) recorded and analyzed the behavior of the animal in the pool. After training, the rats were gently dried with clean paper towels and placed in a warmed holding cage for the rats to dry before being returned to their home cage. Training: During training, the rat was placed into the water facing the wall of the pool and allowed to search for the platform. If the rat found the platform within 60 seconds, the trial was stopped, and the rat was allowed to stay on the platform for 30 seconds before being moved. If the platform was not found within 60 seconds, rats were placed on the platform for 30 sec in order to allow them time to learn the position of the platform in relation of the room's visual cues. Rats were given 4 trials a day for 4 days (days 14 to 17), with a 30 second interval between trials. The starting point was randomly rotated for every rat in each trial. Probe Trial: On the fifth day (day 18 after surgery), the rats received a probe trial. The probe test consisted of placing the animal in the pool for 60 seconds without the platform and monitoring the time spent in the four quadrants of the pool (see FIG. 4B). An animal that has learned the position of the platform will spend more time searching that target quadrant of the pool. During training, a submerged hidden target platform is placed in the pool and this region is defined as the target quadrant (see FIG. 4A). During the probe trial, the platform is removed and the duration of swimming in the different quadrants is tracked by the video camera and computer. […]"}, "rat model of focal TBI [2]": {"tested_on": "rat model of focal TBI", "assay": "Beam balance test, rat model of focal TBI (BCCI)", "type": "in vivo", "text": "BCCI TBI to the medial frontal cortex (MFC) was induced by a cortical contusion device (Custom Design & Fabrication, Inc [CDF], Richmond, Va.). This device creates a reliable contusion injury to the exposed area of the brain with a brass-tipped impounder. (Hoffman et al., 1994). Rats were anesthetized with isoflurane (5%) (Novaplus™), and 02 (300 cm^3/min), and mounted in a stereotaxic frame. Under aseptic conditions, a sagittal incision was made in the scalp and the fascia retracted to expose the cranium. Then, a 6-mm diameter trephine drill was used to open the skull immediately anterior to the bregma. TBI of the MFC was made with a 5-mm-diameter rounded brass impactor attached to a computer-controlled piston propelled electronically with following parameters: velocity=2.5 m/s; depth=3 mm; duration=100 ms). After BCCI, any cortical surface hemorrhaging was controlled and the fascia and scalp sutured. […]\nThe beam balance test examined vestibulomotor reflex activity of the animals after injury. […] The animal was gently placed on a suspended narrow beam 1.5 cm wide with a rough surface and the duration for which it remained on the beam was measured with a maximum cutoff time of 60 sec. […]\nData are presented as mean±SEM and analyzed by one-way repeated measures Analysis of variance (ANOVA) in order to test the effects of treatment on beam balance times and Morris water maze performance. […]"}, "[3]": {"settings": "day 18 following surgery, 30 mg/kg vs saline"}}, "data": [{"compound": "CC(NC(=O)C(CCC(=O)O)NC(=O)CCCCC1CCSS1)C(=O)O", "note": "[CMX-2043, N—(R)-lipoyl-glutamylalanine]", "values": [{"measurement": "Improvement in escape latency relative to Day 1", "setting": "rat model of focal TBI [1]; Day 2 of training", "result": 4.9, "unit": "s"}, {"measurement": "Improvement in escape latency relative to Day 1", "setting": "rat model of focal TBI [1]; Day 3 of training", "result": 8.7, "unit": "s"}, {"measurement": "Improvement in escape latency relative to Day 1", "setting": "rat model of focal TBI [1]; Day 4 of training, significantly better than saline", "result": 24.2, "unit": "s"}, {"measurement": "Morris water maze escape latency", "setting": "rat model of focal TBI [1]; day 1 of training", "result": "longer latency times than saline treated animals"}, {"measurement": "Probe trial number of entries into the platform zone", "setting": "rat model of focal TBI [1]; [3]", "result": "did not reveal a significant difference"}, {"measurement": "Probe trial time spent in the target quadrant", "setting": "rat model of focal TBI [1]; [3]", "result": "did not show an overall difference"}, {"measurement": "Morris water maze escape latency", "setting": "rat model of focal TBI [1]; final training day", "result": "significantly faster escape latency"}, {"measurement": "Morris water maze escape latency", "setting": "rat model of focal TBI [1]; training days 2 and 3", "result": "no differences between groups"}, {"measurement": "Morris water maze swim distance", "setting": "rat model of focal TBI [1]; training, 30 mg/kg vs saline", "result": "no difference"}, {"measurement": "Morris water maze swim speed", "setting": "rat model of focal TBI [1]; training, 30 mg/kg vs saline", "result": "no difference"}, {"measurement": "Treatment efficacy in beam balance motor test", "setting": "rat model of focal TBI [2]; 30 mg/kg intravenously", "result": "not in the beam balance motor test"}, {"measurement": "Beam balance time", "setting": "rat model of focal TBI [2]; Day 3 following injury, 30 mg/kg IV, all groups", "result": "less than 3 seconds"}]}]}
